Experimental data reported in patent publication US20100203132A1, “Pharmaceutical Compositions Comprising NEP-Inhibitors, Inhibitors of the Endogenous Endothelin Producing System and AT1 Receptor Antagonists” (Solvay Pharmaceuticals GmbH, priority 2004, published 2010).
Where a name gives a salt, the structure may show the parent alone.

Legend:
[1] = test system: spontaneously hypertensive rat; test: Telemetric monitoring of blood pressure and heart rate in spontaneously hypertensive rats, compounds given via the drinking water; assay type: in vivo; details: SHR; for DBP, change vs. baseline / HR, change vs. baseline / SBP, change vs. baseline: mean, n=5
Text: Male spontaneously hypertensive rats (=SHR, insulin resistant strain from Charles River; aged 6 months) were equipped with telemetry transmitters for continuous monitoring of blood pressure and heart rate (as described below). After 3 days of monitoring under baseline (untreated) conditions, animals were divided into two groups receiving an AT1-receptor antagonist (eprosartan mesylate, hereinafter referred to as experiment I; or candesartan cilexetil, hereinafter referred to as experiment II) or an AT1-receptor antagonist plus daglutril in combination. In experiment II, a third group of rats was included, receiving only daglutril. Compounds were administered via the drinking water, and daily drug intake was measured by weighing the water bottles thrice weekly. Intended daily doses in experiment I were 60 mg/kg/day of eprosartan mesylate plus, in the combination group, 100 mg/kg/day of daglutril. In experiment II, intended daily doses were 1 mg/kg of candesartan cilexetil, and 100 mg/kg of daglutril in the daglutril only and the combination group. Telemetry transmitters for continuous monitoring of blood pressure, heart rate and locomotor activity (TA11PA-C40, Data Sciences, USA) were implanted intraabdominally under inhalative halothane anesthesia. A midline abdominal incision was made, and the abdominal aorta was visualized by removal of retroperitoneal fat and connective tissue. A ligature was placed caudal of the renal arteries, the aorta was punctured with a 22G needle, and the catheter was advanced into the aorta. The entry point was sealed with tissue adhesive (Vetbond®, 3M, USA), the ligature was removed, and the abdominal incision was closed. Measurements of aortic pressure were taken every 5 minutes (=min) for 4 seconds (=s) each at a sampling rate of 500 Hz, and were corrected for the corresponding ambient pressure (ambient pressure monitor, C11 PR, Data Sciences, USA).
Concentrations of AT1-receptor antagonists and daglutril in the drinking water were adjusted once per week, in order to ensure the intended daily intake. In experiment I, the average daily water intake throughout the 33 days treatment period amounted to 51 and 56 ml/kg in the eprosartan and eprosartan plus daglutril group, respectively, resulting in the uptake of 62 mg/kg/day of eprosartan in both groups, and 104 mg/kg/day of daglutril in the combination group. In experiment II, the average daily water intake during the 25 days treatment period was 64 ml/kg (candesartan only), 62 ml/kg (daglutril only) and 62 ml/kg (candesartan plus daglutril), resulting in daily doses of 0.9 mg/kg of candesartan in both, the candesartan and combination group, and 101 mg/kg and 98 mg/kg of daglutril in the daglutril and combination group, respectively.
The blood pressure, heart rate and activity values, sampled in 5 min intervals by the Dataquest system, were used for calculation of individual 24 hours (=h)-means. These 24 h means were exported to Excel, and group mean values of systolic blood pressure (=SBP), diastolic blood pressure (=DBP), heart rate (=HR), and locomotor activity (=ACT) were calculated for the different treatment groups. For the statistical analysis, a baseline value (pre) was calculated from 3 days prior to compound application, and effects of AT1-receptor antagonist, daglutril and their combination were calculated in relation to this baseline value (average value during the treatment period minus baseline value). The statistical comparison was done by using analysis of variance, followed by two-tailed Student's t-test for comparison of AT1 receptor antagonist and combination groups, both at an error level of P<0.05.

[2] = test system: human subjects with congestive heart failure; test: Single dose study of oral daglutril during 12-hour right heart catheterization, subgroup analysis by concomitant losartan potassium; assay type: in vivo; details: human CHF subjects, single oral dose of daglutril (200, 400 or 800 mg groups pooled), with or without concomitant losartan potassium; value is mean change (SE)
Experimental: A randomized, placebo-controlled, parallel group, multi-center, single dose study of oral daglutril (vide supra) during 12-hour right heart catheterization in human subjects with congestive heart failure (=CHF) was performed. Each subject received one dose of daglutril or placebo. The study consisted of three visits (or study days when in-subjects were included). Ambulatory subjects were in hospital for two nights and one day. […]
The primary efficacy parameter was the maximum decrease from baseline over 6 hours for SVR and was compared between treatment groups using analysis of covariance, with the baseline value as covariate and center and NYHA classification as factors. […] In addition, the existence of a dose-response relationship for daglutril was evaluated by investigating linear, quadratic and cubic contrasts. The secondary efficacy parameter was the maximum change from baseline for PCWP and was analyzed in the same way as the primary variable. The maximum decrease from baseline over 12 hours, the change from for each individual time point and the adjusted area under the curve (=AUC) over 6 and 12 hours were analyzed for SVR and PCWP, using similar statistical methodology as for the main parameter of interest. All other tertiary efficacy parameters were analyzed using the same statistical methodology as for the primary efficacy parameter. […]

[3] = experiment II, 25 days via drinking water, candesartan 0.9 mg/kg/day, daglutril 101 mg/kg (alone) or 98 mg/kg (combination)
[4] = experiment I, 33 days via drinking water, eprosartan 62 mg/kg/day, daglutril 104 mg/kg/day in combination

## CCOc1nc2cccc(C(=O)OC(C)OC(=O)OC3CCCCC3)c2n1Cc1ccc(-c2ccccc2-c2nn[nH]n2)cc1 (centres unmarked) [Candesartan, candesartan cilexetil]
[1]; [3]
  DBP, change vs. baseline: −19.7 mmHg
  HR, change vs. baseline: -3.0 min⁻¹
  SBP, change vs. baseline: −22.8 mmHg

## CCCCc1ncc(/C=C(\Cc2cccs2)C(=O)O)n1Cc1ccc(C(=O)O)cc1 [Eprosartan, eprosartan mesylate]
[1]; [4]
  DBP, change vs. baseline: −5.6 mmHg
  HR, change vs. baseline: -7.6 min⁻¹
  SBP, change vs. baseline: −5.9 mmHg

## CCOC(=O)C(CCc1ccccc1)CC1(C(=O)NC2CCc3ccccc3N(CC(=O)O)C2=O)CCCC1 (centres unmarked) [daglutril, 2-[1-(1-carboxymethyl-2-oxo-2,3,4,5-tetrahydro-1H-benzo[b]azepin-3-ylcarbamoyl)-cyclopentylmethyl]-4-phenyl-butyric acid ethyl ester]
[2]
  Placebo corrected mean change of MPAP (average 0.5-6 hrs): −3.35 (1.06) mmHg
[1]; daglutril given alone
  reduction in blood pressure (in words): did not lead to a reduction in blood pressure
[1]; [3]
  DBP, change vs. baseline: 0.8 mmHg
  HR, change vs. baseline: -2.0 min⁻¹
  SBP, change vs. baseline: −1.5 mmHg
